≈ marks a conversion by molar mass, not a printed value.
Tests used:
Staphylococcus aureus [1] = test: microbe, parasite or virus in culture; settings: isolate 616
Description: Antimicrobial activity against Staphylococcus aureus isolate 616 by Etest

Staphylococcus aureus [2] = test: Antimicrobial activity against Staphylococcus aureus isolate 703 harboring mprF C884A mutant gene by Etest; type: functional
Staphylococcus aureus [3] = test: Antimicrobial activity against Staphylococcus aureus isolate 701 harboring mprF C884A mutant gene by Etest; type: functional
Staphylococcus aureus [4] = test: Antimicrobial activity against Staphylococcus aureus isolate 629 by Etest; type: functional

Compound: CCCCCCCCCC(=O)N[C@@H](Cc1c[nH]c2ccccc12)C(=O)N[C@H](CC(N)=O)C(=O)N[C@@H](CC(=O)O)C(=O)N[C@@H]1C(=O)NCC(=O)N[C@@H](CCCN)C(=O)N[C@@H](CC(=O)O)C(=O)N[C@H](C)C(=O)N[C@@H](CC(=O)O)C(=O)NCC(=O)N[C@H](CO)C(=O)N[C@@H]([C@H](C)CC(=O)O)C(=O)N[C@@H](CC(=O)c2ccccc2N)C(=O)O[C@@H]1C
- MIC (Staphylococcus aureus [1]): 0.5 µg/mL (≈ 0.309 µM)
- MIC (Staphylococcus aureus [2]): 2 µg/mL (≈ 1.23 µM)
- MIC (Staphylococcus aureus [3]): 2 µg/mL (≈ 1.23 µM)
- MIC (Staphylococcus aureus [4]): 0.75 µg/mL (≈ 0.463 µM)
